Test results reported in ChEMBL document CHEMBL1667780, “Identification of a novel small molecule targeting UQCRB of mitochondrial complex III and its anti-angiogenic activity” (Bioorg Med Chem Lett, 2011).
Activity calls are given as the source filed them. No cut-off for these calls is given here.

Columns and labels:
[1] = molecular target: T1, Cytochrome b-c1 complex subunit 7 (Homo sapiens) (UniProt P14927); assay: Binding affinity to human UQCRB at 25 uM by surface plasmon resonance assay
T1 sequence (whole entry): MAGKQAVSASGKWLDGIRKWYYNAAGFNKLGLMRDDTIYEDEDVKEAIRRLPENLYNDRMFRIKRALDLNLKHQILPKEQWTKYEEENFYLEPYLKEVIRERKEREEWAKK

[2] = molecular target: T1, Cytochrome b-c1 complex subunit 7 (Homo sapiens); assay: Binding affinity to UQCRB in HUVEC at 30 uM after 24 hrs by ter-caumarin competitive binding assay; format: cell-based

- Activity [1]: Active
- Activity [2]: Active
SMILES: C/C1=C\C[C@]2(C)C(=O)C(O)=C([C@H](C)CO)[C@H]2C/C=C(\C)[C@@H](O)CC/C(C)=C/CC1
